In US8691804B2 (Evotec AG, priority 2008, dated 2014):

biological target: T1, human H3 receptors (Homo sapiens, UniProt Q9Y5N1); assay: cAMP quantification assay for human H3 receptor testing; assay type: cell-based; settings: CHO-K1 cells expressing human H3 receptors; inhibition of agonist-induced decrease of cAMP; 100 nM histamine, 10 μM forskolin; read-out: Potency range (IC50 values)
T1 construct: host or cells: CHO-K1
Description: CHO—K1 cell line expressing human H3 receptors were purchased from Euroscreen (Gosselies, Belgium, Cat. no.: ES-392-C)
Human H3 receptor-expressing cell-lines were grown in Ham's F12 [Sigma, Cat. no. N6658], supplemented with 10% FBS [Sigma, Cat. no. F9665], 400 μg/ml G418 [Sigma, Cat. no. N1876] and 250 μg/ml Zeocin [Invitrogen, Cat. no. 46-0509]) according to the protocol provided by Euroscreen.
The assay measures the ability of test compounds to inhibit Histamine receptor agonist-induced decrease of intracellular free cAMP (receptor is Gi coupled).
Specifically, a cAMP quantification assay system from DiscoveRx (cAMP XS+; Cat. no. 90-0075) was used.
For the cAMP assay, confluent cells were detached from the culture vessels with 1× trypsin-EDTA solution (Sigma), and seeded into 384-well Costar plates (white, clear bottom, Cat. no. 3707) at a density of 10,000 cells per well. Cells were seeded in a volume of 50 μl in medium without antibiotics and incubated overnight in a humidified atmosphere with 5% CO2 at 37° C. The cAMP assay was performed according to the protocol provided by DiscoveRx.
The cell culture medium was removed and the cells washed once with PBS (50 μl per well). The plates were emptied by inversion and 7.5 μl/well of compound in PBS (containing 1 mM IBMX and 0.03% BSA) were added and incubated for 30 min at 37° C.
Subsequent 7.5 μl/well specific agonist solution was added and the plates for another 30 min incubated at 37° C.
hH3:100 nM histamine, 10 μM forskolin in PBS (containing 1 mM IBMX and 0.03% BSA)
After the incubation with the agonist, 5 μl/well cAMP XS antibody solution was added followed by 20 μl/well Gal/EII/Lysis (1:5:19)+ED (1:1). The plates were incubated for one hour at room temperature and afterwards 20 μl/well EA reagent was added. The luminescence was developed for approximately three hours at room temperature and the plates were read out using a ‘BMG Novostar’ plate reader.
Test compounds were assayed at 8 concentrations in triplicate. Serial 10-fold dilutions in 100% DMSO were made at a 100-times higher concentration than the final concentration and then diluted with a 2 step protocol in assay buffer to reach the required assay concentrations and 1% DMSO. […]

T1 sequence (Q9Y5N1 whole entry): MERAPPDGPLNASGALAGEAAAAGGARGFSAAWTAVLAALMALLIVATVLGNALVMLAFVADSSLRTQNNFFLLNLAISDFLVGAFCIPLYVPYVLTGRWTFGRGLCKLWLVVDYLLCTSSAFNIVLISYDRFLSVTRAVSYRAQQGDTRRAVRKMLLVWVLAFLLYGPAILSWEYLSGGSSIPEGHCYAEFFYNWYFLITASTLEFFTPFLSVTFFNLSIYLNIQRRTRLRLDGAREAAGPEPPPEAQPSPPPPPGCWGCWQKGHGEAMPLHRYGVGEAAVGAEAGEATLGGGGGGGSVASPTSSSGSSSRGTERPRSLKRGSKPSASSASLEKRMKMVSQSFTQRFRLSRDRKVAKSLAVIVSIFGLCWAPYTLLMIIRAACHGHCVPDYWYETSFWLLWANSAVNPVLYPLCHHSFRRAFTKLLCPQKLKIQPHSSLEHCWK

| SMILES | IC50 [nM] |
| --- | --- |
| O=C([C@H]1C[C@@H](Oc2ccc(C(F)(F)F)cn2)C1)N1CCCN(C2CCC2)CC1 [Example 104, 1-cyclobutyl-4-[(cis-3-{[5-(trifluoromethyl)pyridin-2-yl]oxy}cyclobutyl)carbonyl]-1,4-diazepane] | < 100 |
| O=C(N1CCCN(C2CCC2)CC1)N1CC(Oc2ccc(-n3ccnc3)cc2)C1 [Example 26, 1-cyclobutyl-4-({3-[4-(1H-imidazol-1-yl)phenoxy]azetidin-1-yl}carbonyl)-1,4-diazepane] | < 100 |
| O=C([C@H]1C[C@H](Oc2ccc(C(F)(F)F)cn2)C1)N1CCCN(C2CCC2)CC1 [Example 107, 1-cyclobutyl-4-[(trans-3-{[5-(trifluoromethyl)pyridin-2-yl]oxy}cyclobutyl)carbonyl]-1,4-diazepane] | < 100 |
| CC(C)N1CCCN(C(=O)N2CC(Oc3ccc(C(C)(C)O)nc3)C2)CC1 [Example 158, 2-{5-[(1-{[4-(1-methylethyl)-1,4-diazepan-1-yl]carbonyl}azetidin-3-yl)oxy]pyridin-2-yl}propan-2-ol] | < 100 |
| CNC(=O)c1cnccc1OC1CN(C(=O)N2CCCN(C3CCC3)CC2)C1 [Example 85, 4-({1-[(4-cyclobutyl-1,4-diazepan-1-yl)carbonyl]azetidin-3-yl}oxy)-N-methylpyridine-3-carboxamide] | < 100 |
| COc1cc(OC2CN(C(=O)N3CCCN(C4CCC4)CC3)C2)ccn1 [Example 56, 1-cyclobutyl-4-({3-[(2-methoxypyridin-4-yl)oxy]azetidin-1-yl}carbonyl)-1,4-diazepane] | < 100 |
| O=C(C1CN(C(=O)N2CCCN(C3CCC3)CC2)C1)N1CCC(F)CC1 [Example 129, 1-cyclobutyl-4-({3-[(4-fluoropiperidin-1-yl)carbonyl]azetidin-1-yl}carbonyl)-1,4-diazepane] | < 100 |
| NC(=O)c1cc(OC2CN(C(=O)N3CCCN(C4CCC4)CC3)C2)ccn1 [Example 72, 4-({1-[(4-cyclobutyl-1,4-diazepan-1-yl)carbonyl]azetidin-3-yl}oxy)pyridine-2-carboxamide] | < 100 |
| O=C(NC1CN(C(=O)N2CCCN(C3CCC3)CC2)C1)C1CCCCC1 [Example 141, N-{1-[(4-cyclobutyl-1,4-diazepan-1-yl)carbonyl]azetidin-3-yl}cyclohexanecarboxamide] | < 100 |
| CN(C(=O)c1ccc(Cl)cc1)C1CN(C(=O)N2CCCN(C3CCC3)CC2)C1 [Example 142, 4-chloro-N-{1-[(4-cyclobutyl-1,4-diazepan-1-yl)carbonyl]azetidin-3-yl}-N-methylbenzamide] | < 100 |
| O=C(N1CCCN(C2CCC2)CC1)N1CC(Oc2ncc(F)cn2)C1 [Example 160, 1-cyclobutyl-4-({3-[(5-fluoropyrimidin-2-yl)oxy]azetidin-1-yl}carbonyl)-1,4-diazepane] | < 100 |
| N#Cc1ccc(O[C@H]2C[C@H](C(=O)N3CCCN(C4CCC4)CC3)C2)cc1 [Example 106, 4-({trans-3-[(4-cyclobutyl-1,4-diazepan-1-yl)carbonyl]cyclobutyl}oxy)benzonitrile] | < 100 |
| O=C(N1CCCN(C2CCC2)CC1)N1CC(Oc2ccc(Br)nc2)C1 [Example 24, 1-({3-[(6-bromopyridin-3-yl)oxy]azetidin-1-yl}carbonyl)-4-cyclobutyl-1,4-diazepane] | < 100 |
| O=C(N1CCCN(C2CCC2)CC1)N1CC(Oc2ccc(CN3CCC(F)(F)CC3)cc2)C1 [Example 21, 1-cyclobutyl-4-[(3-{4-[(4,4-difluoropiperidin-1-yl)methyl]phenoxy}azetidin-1-yl)carbonyl]-1,4-diazepane] | < 100 |
| CNC(=O)c1cccc(OC2CN(C(=O)N3CCCN(C4CCC4)CC3)C2)c1 [Example 75, 3-({1-[(4-cyclobutyl-1,4-diazepan-1-yl)carbonyl]azetidin-3-yl}oxy)-N-methylbenzamide] | < 100 |
| O=C(N1CCN(C2CCC2)CC1)N1CC(Oc2ccc(C(F)(F)F)cc2)C1 [Example 39, 1-cyclobutyl-4-({3-[4-(trifluoromethyl)phenoxy]azetidin-1-yl}carbonyl)piperazine] | < 100 |
| CNC(=O)c1ccc(O[C@H]2C[C@@H](C(=O)N3CCCN(C4CCC4)CC3)C2)nc1 [Example 102, 6-({cis-3-[(4-cyclobutyl-1,4-diazepan-1-yl)carbonyl]cyclobutyl}oxy)-N-methylpyridine-3-carboxamide] | < 100 |

| SMILES | IC50 [nM] |
| --- | --- |
| COc1cccc(OC2CN(C(=O)N3CCCN(C4CCC4)CC3)C2)c1 [Example 91, 1-cyclobutyl-4-{[3-(3-methoxyphenoxy)azetidin-1-yl]carbonyl}-1,4-diazepane] | < 100 |
| Cc1ccc(OC2CN(C(=O)N3CCCN(C4CCC4)CC3)C2)nn1 [Example 59, 1-cyclobutyl-4-({3-[(6-methylpyridazin-3-yl)oxy]azetidin-1-yl}carbonyl)-1,4-diazepane] | < 100 |
| O=C(NC1CN(C(=O)N2CCCN(C3CCC3)CC2)C1)c1ccc(Cl)cc1 [Example 140, 4-chloro-N-{1-[(4-cyclobutyl-1,4-diazepan-1-yl)carbonyl]azetidin-3-yl}benzamide] | < 100 |
| O=C(N1CCCN(C2CCC2)CC1)N1CC(CO)C1 [Example 134, {1-[(4-cyclobutyl-1,4-diazepan-1-yl)carbonyl]azetidin-3-yl}methanol] | < 100 |
| CNC(=O)c1ccc(OCC2CN(C(=O)N3CCCN(C4CCC4)CC3)C2)cn1 [Example 138, 5-({1-[(4-cyclobutyl-1,4-diazepan-1-yl)carbonyl]azetidin-3-yl}methoxy)-N-methylpyridine-2-carboxamide] | < 100 |
| CN1CCN(Cc2ccc(OC3CN(C(=O)N4CCCN(C5CCC5)CC4)C3)cc2)CC1 [Example 20, 1-cyclobutyl-4-[(3-{4-[(4-methylpiperazin-1-yl)methyl]phenoxy}azetidin-1-yl)carbonyl]-1,4-diazepane] | < 100 |
| Cc1ccc(COC2CN(C(=O)N3CCCN(C4CCC4)CC3)C2)cn1 [Example 164, 1-cyclobutyl-4-({3-[(6-methylpyridin-3-yl)methoxy]azetidin-1-yl}carbonyl)-1,4-diazepane] | < 100 |
| Cc1cc(Cl)ccc1OC1CN(C(=O)N2CCCN(C3CCC3)CC2)C1 [Example 25, 1-{[3-(4-chloro-2-methylphenoxy)azetidin-1-yl]carbonyl}-4-cyclobutyl-1,4-diazepane] | < 100 |
| N#Cc1ccc(OC2CN(C(=O)N3CCCN(C4CCC4)CC3)C2)cc1 [Example 12, 4-({1-[(4-cyclobutyl-1,4-diazepan-1-yl)carbonyl]azetidin-3-yl}oxy)benzonitrile] | < 100 |
| O=C1NCCc2cc(OCC3CN(C(=O)N4CCCN(C5CCC5)CC4)C3)ccc21 [Example 136, 6-({1-[(4-cyclobutyl-1,4-diazepan-1-yl)carbonyl]azetidin-3-yl}methoxy)-3,4-dihydroisoquinolin-1(2H)-one] | < 100 |
| CN(C)c1cc(OC2CN(C(=O)N3CCCN(C4CCC4)CC3)C2)ccn1 [Example 58, 4-({1-[(4-cyclobutyl-1,4-diazepan-1-yl)carbonyl]azetidin-3-yl}oxy)-N,N-dimethylpyridin-2-amine] | < 100 |
| O=C(N1CCCN(C2CCC2)CC1)N1CC(Oc2ccc(Cl)c(Cl)c2)C1 [Example 23, 1-cyclobutyl-4-{[3-(3,4-dichlorophenoxy)azetidin-1-yl]carbonyl}-1,4-diazepane] | < 100 |
| Cc1ccc2cc(OC3CN(C(=O)N4CCCN(C5CCC5)CC4)C3)ccc2n1 [Example 93, 6-({1-[(4-cyclobutyl-1,4-diazepan-1-yl)carbonyl]azetidin-3-yl}oxy)-2-methylquinoline] | < 100 |
| O=C(N1CCCN(C2CCC2)CC1)N1CC(Oc2ccn3ccnc3c2)C1 [Example 71, 7-({1-[(4-cyclobutyl-1,4-diazepan-1-yl)carbonyl]azetidin-3-yl}oxy)imidazo[1,2-a]pyridine] | < 100 |
| O=C(N1CCCN(C2CCC2)CC1)N1CC(Oc2ccc(C(F)(F)F)cc2)C1 [Example 10, 1-cyclobutyl-4-({3-[4-(trifluoromethyl)phenoxy]azetidin-1-yl}carbonyl)-1,4-diazepane] | < 100 |
| COc1ccc(OC2CN(C(=O)N3CCCN(C4CCC4)CC3)C2)nc1 [Example 161, 1-cyclobutyl-4-({3-[(5-methoxypyridin-2-yl)oxy]azetidin-1-yl}carbonyl)-1,4-diazepane] | < 100 |
| Cc1nccc(OC2CN(C(=O)N3CCCN(C4CCC4)CC3)C2)c1F [Example 151, 1-cyclobutyl-4-({3-[(3-fluoro-2-methylpyridin-4-yl)oxy]azetidin-1-yl}carbonyl)-1,4-diazepane] | < 100 |
